{
  "source": "paper PMC3314985",
  "about": "(Neuromuscular Disorders, 2012)",
  "key": {"[1]": {"tested_on": "skeletal muscle sodium channels (native Nav1.4)", "experiment": "Tonic and use-dependent block of sodium currents", "assay_type": "cell-based, Rana Esculenta", "conditions": "for eudismic ratio [IC50 distomer/IC50 eutomer]: 10 Hz use-dependent block"}, "[2]": {"tested_on": "hNav1.4", "conditions": "heterologously expressed; cited from earlier work"}, "[3]": {"tested_on": "hNav1.7", "conditions": "heterologously expressed; cited from earlier work"}, "[4]": {"tested_on": "pain threshold", "conditions": "rat, oxaliplatin-induced neuropathic pain; cited from earlier work"}, "[5]": {"tested_on": "human serum albumin", "conditions": "cited from earlier work"}, "[6]": {"tested_on": "skeletal muscle sodium channels (native Nav1.4)", "conditions": "use-dependent block at 10 Hz frequency; cited from earlier work"}},
  "note": "Like-named read-outs stand apart in the source and are kept apart here.",
  "data": [
    {"molecule": "Cc1cccc(C)c1NC(=O)C1CCCCN1Cc1ccccc1", "note": "(stereo not drawn) [To35, 1-benzyl-N-(2,6-dimethylphenyl)piperidine-2-carboxamide]", "values": [
      {"measurement": "fold less potent than To31 in tonic block", "setting": "[1]; tonic block", "value": 4, "unit": "fold"},
      {"measurement": "fold less potent than To31 in use-dependent block", "setting": "[1]; use-dependent block", "value": 8, "unit": "fold"}
    ]},
    {"molecule": "Cc1cccc(C)c1NC(=O)C1CCN(Cc2ccccc2)C1", "note": "(racemic) [To10, 1-benzyl-N-(2,6-dimethylphenyl)pyrrolidine-3-carboxamide]", "values": [
      {"measurement": "eudismic ratio [IC50 distomer/IC50 eutomer]", "setting": "[1]", "value": 1.3},
      {"measurement": "use-dependent block of hNav1.4", "setting": "[2]", "value": "potent use-dependent blocker"},
      {"measurement": "use-dependent block of hNav1.7", "setting": "[3]", "value": "potent use-dependent blocker"},
      {"measurement": "reverting the reduction of the pain threshold", "setting": "[4]", "value": "more potent than tocainide"}
    ]},
    {"molecule": "O=C(Nc1ccccc1)C1CCN(Cc2ccccc2)C1", "note": "(stereo not drawn) [To13, 1-benzyl-N-phenylpyrrolidine-3-carboxamide]", "values": [
      {"measurement": "fold less potent than To10 during use-dependent blockade", "setting": "[1]", "value": "4–5 fold"}
    ]},
    {"molecule": "Cc1cccc(C)c1NC(=O)C1CCCN1Cc1ccccc1", "note": "(racemic) [To11, 1-benzyl-N-(2,6-dimethylphenyl)pyrrolidine-2-carboxamide]", "values": [
      {"measurement": "eudismic ratio [IC50 distomer/IC50 eutomer]", "setting": "[1]", "value": "greater than 3"}
    ]},
    {"molecule": "Cc1cc(C)c(C)c(NC(=O)C2CCN(Cc3ccccc3)C2)c1C", "note": "(stereo not drawn) [To15, 1-benzyl-N-(2,3,5,6-tetramethylphenyl)pyrrolidine-3-carboxamide]", "values": [
      {"measurement": "binding activity to human serum albumin", "setting": "[5]", "value": "high binding activity"}
    ]},
    {"molecule": "O=C(Nc1ccc(Cl)cc1)C1CCN(Cc2ccccc2)C1", "note": "(stereo not drawn) [To14, 1-benzyl-N-(4-chlorophenyl)pyrrolidine-3-carboxamide]", "values": [
      {"measurement": "fold less potent than To10 during use-dependent blockade", "setting": "[1]", "value": "4–5 fold"}
    ]},
    {"molecule": "Cc1cccc(C)c1NC(=O)C1CN(Cc2ccccc2)CCN1", "note": "(stereo not drawn) [To32, 4-benzyl-N-(2,6-dimethylphenyl)piperazine-2-carboxamide]", "values": [
      {"measurement": "ratio IC50TB/IC50 UDB", "setting": "[1]; tonic block vs use-dependent block", "value": "around 12"}
    ]},
    {"molecule": "Cc1cccc(C)c1NC(=O)C1CCCN1", "note": "(stereo not drawn) [To5, N-(2,6-dimethylphenyl)pyrrolidine-2-carboxamide]", "values": [
      {"measurement": "eudismic ratio [IC50 distomer/IC50 eutomer]", "setting": "[6]", "value": "> 3"}
    ]}
  ]
}
